Results: patent US9890149B2 (NuBridge BioSciences, priority 2015, dated 2018)
Where a name gives a salt, the structure may show the parent alone.

molecular target: T1, ΔF508 mutant CFTR (Homo sapiens, UniProt P13569, DEL508-508); experiment: Fluorescence Assay (halide-sensitive YFP, iodide influx) for ΔF508 mutant CFTR activity; format: cell-based; details: FRT cells expressing ΔF508-CFTR and YFP-H148Q/I152L, incubated 27° C. 20-24 h; forskolin (20 μM) and test compounds (20 μM) for 20 min; rate of fluorescence quenching by I−, normalized to forskolin alone
T1 construct: expressed in transfected cells; host or cells: Fischer rat thyroid (FRT) cells
Source text: The ΔF508 mutant CFTR activities of the CFTR modulators are detected using the Fluorescence Assay developed by Pedemonte (Pedemonte N., et al., Antihypertensive 1,4-dihydropyridines as correctors of the cystic fibrosis transmembrane conductance regulator channel gating defect caused by cystic fibrosis mutations, Mol. Pharmacol., 2005, 68, 1736-1746).
Fischer rat thyroid (FRT) cells, stably transfected with ΔF508 were retransfected with the YFP-H148Q/I152L fluorescent protein. The cells were plated (100,000 cells/well) on black 96-well microplates with clear plastic bottom (Corning Life Sciences, Acton, Mass.).
The 96-well microplates containing FRT cells expressing F508-CFTR and the halide-sensitive YFP were incubated at 27° C. for 20 to 24 h to allow rescue of the mutant protein to the plasma membrane. After incubation, cells were washed with PBS (containing 137 mM NaCl, 2.7 mM KCl, 8.1 mM Na2HPO4, 1.5 mM KH2PO4, 1 mM CaCl2, and 0.5 mM MgCl2) and stimulated for 20 min with forskolin (20 μM) and test compounds (20 μM) in a final volume of […] Microplates were then transferred to a microplate reader for CFTR activity determination.

T1 sequence (P13569 with tags, fused parts or gaps DEL508-508): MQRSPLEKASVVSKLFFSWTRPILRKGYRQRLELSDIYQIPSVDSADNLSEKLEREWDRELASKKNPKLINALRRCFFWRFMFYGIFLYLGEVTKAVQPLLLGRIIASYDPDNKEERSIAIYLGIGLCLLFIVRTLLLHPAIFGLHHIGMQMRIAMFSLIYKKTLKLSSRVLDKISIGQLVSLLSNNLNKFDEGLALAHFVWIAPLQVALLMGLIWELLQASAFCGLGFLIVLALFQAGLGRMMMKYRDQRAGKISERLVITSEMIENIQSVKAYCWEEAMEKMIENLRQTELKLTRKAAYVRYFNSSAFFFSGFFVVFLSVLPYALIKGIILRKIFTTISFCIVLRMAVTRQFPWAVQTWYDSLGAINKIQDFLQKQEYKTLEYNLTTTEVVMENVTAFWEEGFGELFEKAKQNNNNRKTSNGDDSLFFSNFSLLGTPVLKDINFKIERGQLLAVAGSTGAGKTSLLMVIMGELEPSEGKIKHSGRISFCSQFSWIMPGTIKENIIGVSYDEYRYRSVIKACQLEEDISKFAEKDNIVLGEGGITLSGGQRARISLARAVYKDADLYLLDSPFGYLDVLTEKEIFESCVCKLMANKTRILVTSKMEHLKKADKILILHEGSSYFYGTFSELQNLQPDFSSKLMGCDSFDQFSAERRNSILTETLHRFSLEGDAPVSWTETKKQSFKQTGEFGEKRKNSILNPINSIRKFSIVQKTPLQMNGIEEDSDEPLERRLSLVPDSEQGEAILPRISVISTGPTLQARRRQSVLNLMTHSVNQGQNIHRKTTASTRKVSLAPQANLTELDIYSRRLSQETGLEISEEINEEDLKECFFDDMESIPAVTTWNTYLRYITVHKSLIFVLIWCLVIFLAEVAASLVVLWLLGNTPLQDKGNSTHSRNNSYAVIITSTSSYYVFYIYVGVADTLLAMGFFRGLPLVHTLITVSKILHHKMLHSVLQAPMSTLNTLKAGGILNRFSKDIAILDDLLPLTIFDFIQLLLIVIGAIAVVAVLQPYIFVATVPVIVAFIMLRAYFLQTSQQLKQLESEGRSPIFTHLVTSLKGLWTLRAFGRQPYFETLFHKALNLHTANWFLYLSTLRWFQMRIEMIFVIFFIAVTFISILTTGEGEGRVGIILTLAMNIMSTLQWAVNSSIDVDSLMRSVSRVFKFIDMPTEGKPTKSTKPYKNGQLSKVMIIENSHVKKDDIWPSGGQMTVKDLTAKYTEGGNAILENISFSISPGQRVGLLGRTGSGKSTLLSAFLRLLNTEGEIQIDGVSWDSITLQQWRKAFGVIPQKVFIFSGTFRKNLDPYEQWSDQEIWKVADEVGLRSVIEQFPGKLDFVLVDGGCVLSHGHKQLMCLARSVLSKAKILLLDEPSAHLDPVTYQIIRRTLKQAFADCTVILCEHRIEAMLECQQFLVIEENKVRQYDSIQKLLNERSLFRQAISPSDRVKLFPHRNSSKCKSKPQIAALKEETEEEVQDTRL

SMILES | CFTR Activity
Cl.O=C(Nc1cnsc1OCC1CCNCC1)c1ccc(F)c(-c2c(F)cccc2F)n1 [Example 1, 6-(2,6-difluorophenyl)-5-fluoro-N-(5-(piperidin-4-ylmethoxy)isothiazol-4-yl)picolinamide hydrochloride] | 0.9
Cl.O=C(Nc1cnsc1OCC1CNC1)c1ccc(F)c(-c2c(F)cccc2F)n1 [Example 2, N-(5-(azetidin-3-ylmethoxy)isothiazol-4-yl)-6-(2,6-difluorophenyl)-5-fluoropicolinamide hydrochloride] | 0.2
Cl.O=C(Nc1cnsc1OC1CCNCC1)c1ccc(F)c(-c2c(F)cccc2F)n1 [Example 3, 6-(2,6-difluorophenyl)-5-fluoro-N-(5-(piperidin-4-yloxy)isothiazol-4-yl)picolinamide hydrochloride] | 1.3
Cl.O=C(Nc1cnsc1OC1CCNC1)c1ccc(F)c(-c2c(F)cccc2F)n1 (centres unmarked) [Example 4, 6-(2,6-difluorophenyl)-5-fluoro-N-(5-(pyrrolidin-3-yloxy)isothiazol-4-yl)picolinamide hydrochloride] | 0.8
Cl.O=C(Nc1cnsc1OC1CCCNC1)c1ccc(F)c(-c2c(F)cccc2F)n1 (centres unmarked) [Example 5, 6-(2,6-difluorophenyl)-5-fluoro-N-(5-(piperidin-3-yloxy)isothiazol-4-yl)picolinamide hydrochloride] | 0.5
Cl.O=C(Nc1cnsc1OC1CCCNCC1)c1ccc(F)c(-c2c(F)cccc2F)n1 (centres unmarked) [Example 6, N-(5-(azepan-4-yloxy)isothiazol-4-yl)-6-(2,6-difluorophenyl)-5-fluoropicolinamide hydrochloride] | 1.4
Cl.O=C(Nc1cnsc1OCC1CCCNC1)c1ccc(F)c(-c2c(F)cccc2F)n1 (centres unmarked) [Example 7, 6-(2,6-difluorophenyl)-5-fluoro-N-(5-(piperidin-3-ylmethoxy)isothiazol-4-yl)picolinamide hydrochloride] | 0.9
Cl.O=C(Nc1cnsc1OCC1CCNC1)c1ccc(F)c(-c2c(F)cccc2F)n1 (centres unmarked) [Example 8, 6-(2,6-difluorophenyl)-5-fluoro-N-(5-(pyrrolidin-3-ylmethoxy)isothiazol-4-yl)picolinamide hydrochloride] | 0.7
Cl.O=C(Nc1cnsc1OC1CNC1)c1ccc(F)c(-c2c(F)cccc2F)n1 [Example 9, N-(5-(azetidin-3-yloxy)isothiazol-4-yl)-6-(2,6-difluorophenyl)-5-fluoropicolinamide hydrochloride] | 0.1
Cl.N[C@H]1CC[C@H](Oc2sncc2NC(=O)c2ccc(F)c(-c3c(F)cccc3F)n2)CC1 [Example 10, N-(5-(((1r,4r)-4-aminocyclohexyl)oxy)isothiazol-4-yl)-6-(2,6-difluorophenyl)-5-fluoropicolinamide hydrochloride] | 1
Cl.NC1CCCC(Oc2sncc2NC(=O)c2ccc(F)c(-c3c(F)cccc3F)n2)C1 (centres unmarked) [Example 11, N-(5-((3-aminocyclohexyl)oxy)isothiazol-4-yl)-6-(2,6-difluorophenyl)-5-fluoropicolinamide hydrochloride] | 1.1
Cl.NCCCOc1sncc1NC(=O)c1ccc(F)c(-c2c(F)cccc2F)n1 [Example 12, N-(5-(3-aminopropoxy)isothiazol-4-yl)-6-(2,6-difluorophenyl)-5-fluoropicolinamide hydrochloride] | 0.7
CNCCCOc1sncc1NC(=O)c1ccc(F)c(-c2c(F)cccc2F)n1.Cl [Example 13, 6-(2,6-difluorophenyl)-5-fluoro-N-(5-(3-(methylamino)propoxy)isothiazol-4-yl)picolinamide hydrochloride] | 0.5
CN(C)CCCOc1sncc1NC(=O)c1ccc(F)c(-c2c(F)cccc2F)n1.Cl [Example 14, 6-(2,6-difluorophenyl)-N-(5-(3-(dimethylamino)propoxy)isothiazol-4-yl)-5-fluoropicolinamide hydrochloride] | 0.3
Cl.NCCCCOc1sncc1NC(=O)c1ccc(F)c(-c2c(F)cccc2F)n1 [Example 15, N-(5-(4-aminobutoxy)isothiazol-4-yl)-6-(2,6-difluorophenyl)-5-fluoropicolinamide hydrochloride] | 0.7
CNCCCCOc1sncc1NC(=O)c1ccc(F)c(-c2c(F)cccc2F)n1.Cl [Example 16, 6-(2,6-difluorophenyl)-5-fluoro-N-(5-(4-(methylamino)butoxy)isothiazol-4-yl)picolinamide hydrochloride] | 0.5

SMILES | CFTR Activity
O=C(Nc1cnsc1OCCCO)c1ccc(F)c(-c2c(F)cccc2F)n1 [Example 17, 6-(2,6-difluorophenyl)-5-fluoro-N-(5-(3-hydroxypropoxy)isothiazol-4-yl)picolinamide] | 0.1
CC(O)CCOc1sncc1NC(=O)c1ccc(F)c(-c2c(F)cccc2F)n1 (centres unmarked) [Example 18, 6-(2,6-difluorophenyl)-5-fluoro-N-(5-(3-hydroxybutoxy)isothiazol-4-yl)picolinamide] | 0.12
O=C(Nc1cnsc1OCCCCO)c1ccc(F)c(-c2c(F)cccc2F)n1 [Example 19, 6-(2,6-difluorophenyl)-5-fluoro-N-(5-(4-hydroxybutoxy)isothiazol-4-yl)picolinamide] | 0.1
CC(C)(O)CCCOc1sncc1NC(=O)c1ccc(F)c(-c2c(F)cccc2F)n1 [Example 20, 6-(2,6-difluorophenyl)-5-fluoro-N-(5-((4-hydroxy-4-methylpentyl)oxy)isothiazol-4-yl)picolinamide] | 0.1
O=C(Nc1cnsc1OCCC(O)CO)c1ccc(F)c(-c2c(F)cccc2F)n1 (centres unmarked) [Example 21, 6-(2,6-difluorophenyl)-N-(5-(3,4-dihydroxybutoxy)isothiazol-4-yl)-5-fluoropicolinamide] | 0.5
O=C(Nc1cnsc1OCC1CCOCC1)c1ccc(F)c(-c2c(F)cccc2F)n1 [Example 22, 6-(2,6-difluorophenyl)-5-fluoro-N-(5-((tetrahydro-2H-pyran-4-yl)methoxy)isothiazol-4-yl)picolinamide] | 0.3
Cl.Nc1cc(F)c(-c2c(F)cccc2F)nc1C(=O)Nc1cnsc1OCC1CCNCC1 [Example 23, 3-amino-6-(2,6-difluorophenyl)-5-fluoro-N-(5-(piperidin-4-ylmethoxy)isothiazol-4-yl)picolinamide hydrochloride] | 2.2
Cl.Nc1cc(F)c(-c2c(F)cccc2F)nc1C(=O)Nc1cnsc1OC1CCNC1 (centres unmarked) [Example 24, 3-amino-6-(2,6-difluorophenyl)-5-fluoro-N-(5-(pyrrolidin-3-yloxy)isothiazol-4-yl)picolinamide hydrochloride] | 1.9
Cl.Nc1cc(F)c(-c2c(F)cccc2F)nc1C(=O)Nc1cnsc1OC1CCNCC1 [Example 25, 3-amino-6-(2,6-difluorophenyl)-5-fluoro-N-(5-(piperidin-4-yloxy)isothiazol-4-yl)picolinamide hydrochloride] | 2.5
Cl.Nc1cc(F)c(-c2c(F)cccc2F)nc1C(=O)Nc1cnsc1OC1CCCNCC1 (centres unmarked) [Example 26, 3-amino-N-(5-(azepan-4-yloxy)isothiazol-4-yl)-6-(2,6-difluorophenyl)-5-fluoropicolinamide hydrochloride] | 3.1
Cl.Nc1cc(F)c(-c2c(F)cccc2F)nc1C(=O)Nc1cnsc1O[C@H]1CC[C@H](N)CC1 [Example 27, 3-amino-N-(5-(((1r,4r)-4-aminocyclohexyl)oxy)isothiazol-4-yl)-6-(2,6-difluorophenyl)-5-fluoropicolinamide hydrochloride] | 2.8
Cl.Nc1cc(F)c(-c2c(F)cccc2F)nc1C(=O)Nc1cnsc1OCC1CCNC1 (centres unmarked) [Example 28, 3-amino-6-(2,6-difluorophenyl)-5-fluoro-N-(5-(pyrrolidin-3-ylmethoxy)isothiazol-4-yl)picolinamide hydrochloride] | 1.7
NCC(CCl)Oc1sncc1NC(=O)c1ccc(F)c(-c2c(F)cccc2F)n1 (centres unmarked) [Example 29, N-(5-((1-amino-3-chloropropan-2-yl)oxy)isothiazol-4-yl)-6-(2,6-difluorophenyl)-5-fluoropicolinamide hydrochloride] | 1.4
Cl.NCC(CCl)COc1sncc1NC(=O)c1ccc(F)c(-c2c(F)cccc2F)n1 (centres unmarked) [Example 30, N-(5-(3-amino-2-(chloromethyl)propoxy)isothiazol-4-yl)-6-(2,6-difluorophenyl)-5-fluoropicolinamide hydrochloride] | 1.4
Cl.Nc1cc(F)c(-c2c(F)cccc2F)nc1C(=O)Nc1cnsc1OC1CNC1 [Example 31, 3-amino-N-(5-(azetidin-3-yloxy)isothiazol-4-yl)-6-(2,6-difluorophenyl)-5-fluoropicolinamide hydrochloride] | 0.1
Cl.Nc1cc(F)c(-c2c(F)cccc2F)nc1C(=O)Nc1cnsc1OCC1CNC1 [Example 32, 3-amino-N-(5-(azetidin-3-ylmethoxy)isothiazol-4-yl)-6-(2,6-difluorophenyl)-5-fluoropicolinamide hydrochloride] | 0.3
